Results: patent EP0023761B1, “Tetrahydroisoquinoline derivatives, process for preparing them and compositions containing them” (priority 1979, dated 1981)
Structures can show the parent of a compound that is named as a salt.

Experiments:
[1] = biological target: T1, phenylethanolamine N-methyltransferase (Oryctolagus cuniculus, UniProt G1TT82); test: inhibition of phenylethanolamine N-methyltransferase in vitro (assay procedure of Pendleton and Snow); type: biochemical; conditions: read-out: inhibit phenylethanolamine N-methyltransferase; for inhibition at 100 µM: concentration 1.0 x 10-^4 (unit inferred); for inhibition at 1 µM: concentration 1.0 x 10-^6 (unit inferred)
T1 sequence (G1TT82 1-286): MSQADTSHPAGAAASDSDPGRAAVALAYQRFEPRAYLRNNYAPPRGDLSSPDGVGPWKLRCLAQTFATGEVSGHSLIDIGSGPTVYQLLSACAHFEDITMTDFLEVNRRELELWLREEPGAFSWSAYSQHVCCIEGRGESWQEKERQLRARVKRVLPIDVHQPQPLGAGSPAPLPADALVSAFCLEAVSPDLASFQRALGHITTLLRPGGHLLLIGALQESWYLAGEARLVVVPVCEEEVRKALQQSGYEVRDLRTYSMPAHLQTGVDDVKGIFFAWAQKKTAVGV

PNMT = test: in vivo PNMT inhibition in mice: adrenal epinephrine/norepinephrine ratio, measured fluorometrically; conditions: male mice, oral, 50 mg/kg per day, twice a day for seven days, dosed again next morning, sacrificed two hours later; vehicle control 2.5 + 0.23; p <.01
Method: Male mice were dosed orally with either drug or vehicle control on a twice-a-day basis for seven consecutive days. On the morning of the next day they were again dosed and two hours later sacrificed by decapitation. The adrenal glands were then removed and analyzed fluorometrically for both epinephrine and norepinephrine content.

| SMILES | inhibition at 100 µM [1] | inhibition at 1 µM [1] | adrenal epinephrine/norepinephrine ratio (PNMT) |
| --- | --- | --- | --- |
| c1cc2nnsc2c2c1CCNC2 [[1,2,3]thiadiazolo[4,5-h]-6,7,8,9-tetrahydroisoquinoline hydrochloride] | 99% | 91% | – |
| c1cc2snnc2c2c1CCNC2 [[1,2,3]thiadiazolo[5,4-h]-6,7,8,9-tetrahydroisoquinoline hydrochloride] | 99% | 94% | 1.3 ± 0.08 |
